By Kd is commonly meant the concentration at which binding is half-saturated. Read a low Kd as higher affinity.

The values that follow come from paper PMC10092485, “Sialic Acid 4‐N‐Piperazine and Piperidine Derivatives Bind with High Affinity to the P. mirabilis Sialic Acid Sodium Solute Symporter” (Chemmedchem, 2022).

Common to all, as to assay type: binding
Test [1] concerns the target T1, PmSiaT (Proteus mirabilis, UniProt B4EZY7).
T1 construct: gene siaT; detergent-solubilised transporter in DDM; extinction coefficient 76,445
Put plainly: isothermal titration calorimetry. Particulars: 25 °C; 50 mM Tris-HCl, 150 mM NaCl, 0.0174 % DDM, pH 8.0 (at 5 °C); n fixed to 1. An excerpt:
isothermal titration calorimetry on PmSiaT

The target of test [2] is T1, PmSiaT. Put plainly: nanoDSF thermal shift. Particulars: PBS, 0.0174 % DDM, 2 μM protein, 1.25 mM ligand; shift counted from the Neu5Ac complex.
In test [3] the target is T1, PmSiaT. Put plainly: nanoDSF thermal shift. Particulars: PBS, 0.0174 % DDM, 2 μM protein, 1.25 mM ligand; reference ligand for all shifts. A general note: Differential scanning fluorimetry follows unfolding on heating by fluorescence.

T1 sequence (B4EZY7 whole entry): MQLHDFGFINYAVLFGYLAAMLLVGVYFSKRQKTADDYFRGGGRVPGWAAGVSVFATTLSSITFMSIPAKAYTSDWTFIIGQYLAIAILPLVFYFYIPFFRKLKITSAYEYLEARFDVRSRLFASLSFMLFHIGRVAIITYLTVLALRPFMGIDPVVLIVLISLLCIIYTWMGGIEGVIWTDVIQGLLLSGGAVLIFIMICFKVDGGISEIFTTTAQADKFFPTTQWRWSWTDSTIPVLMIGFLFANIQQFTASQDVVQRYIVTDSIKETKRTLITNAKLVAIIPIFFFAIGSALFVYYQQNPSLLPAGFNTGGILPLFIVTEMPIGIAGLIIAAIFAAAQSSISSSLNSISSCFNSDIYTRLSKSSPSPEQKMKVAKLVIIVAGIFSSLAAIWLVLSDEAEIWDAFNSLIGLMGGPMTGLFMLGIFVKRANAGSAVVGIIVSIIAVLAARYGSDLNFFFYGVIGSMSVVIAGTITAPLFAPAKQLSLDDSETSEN

`CC(=O)N[C@H]1[C@H]([C@H](O)[C@H](O)CO)OC(O)(C(=O)O)C[C@@H]1N1CCC(c2cccc(Br)c2)CC1` (stereo partly drawn) [3 f, 5‐Acetamido‐4‐[4‐(3‐bromophenyl)piperidin‐1‐yl]‐3,4,5‐ trideoxy‐D‐glycero‐β‐D‐galacto‐nonulosonic acid] displayed a Kd in test [1] of 1320 nM.

For `CC(=O)N[C@H]1[C@H]([C@H](O)[C@H](O)CO)OC(O)(C(=O)O)C[C@@H]1N1CCC(c2cccc(C(F)(F)F)c2)CC1` (stereo partly drawn) [3 h, 5‐Acetamido‐3,4,5‐ trideoxy‐4‐[4‐(3‐trifluoromethylphenyl)piperidin‐1‐yl]‐D‐glycero‐β‐D‐galacto‐nonulosonic acid], the “ΔT m (relative to Neu5Ac)” value in test [2] was “piperidine or piperazine‐linked halogenated aromatic residues showed the largest thermal stabilizations”.

In the case of `CC(=O)N[C@H]1[C@H]([C@H](O)[C@H](O)CO)OC(O)(C(=O)O)C[C@@H]1O` (stereo partly drawn) [Neu5Ac], the ΔT m result in test [3] is “The ΔT m reported are given in °C and relative to Neu5Ac”.

Regarding `CC(=O)N[C@H]1[C@H]([C@H](O)[C@H](O)CO)OC(O)(C(=O)O)C[C@@H]1N1CCN(C(=O)c2cccc(Cl)c2Cl)CC1` (stereo partly drawn) [6 c, 5‐Acetamido‐4‐[4‐(2,3‐dichlorobenzoyl)piperazin‐1‐yl]‐3,4,5‐ trideoxy‐D‐glycero‐β‐D‐galacto‐nonulosonic acid], the Kd in test [1] is 470 nM.

With `CC(=O)N[C@H]1[C@H]([C@H](O)[C@H](O)CO)OC(O)(C(=O)O)C[C@@H]1N1CCC(c2cccc(O)c2)CC1` (stereo partly drawn) [3 i, 5‐Acetamido‐4‐[4‐(3‐hydroxyphenyl)piperidin‐1‐yl]‐3,4,5‐ trideoxy‐D‐glycero‐β‐D‐galacto‐nonulosonic acid], the affinity in test [1], expressed as Kd, was 17900 nM.

Consider `CC(=O)N[C@H]1[C@H]([C@H](O)[C@H](O)CO)OC(O)(C(=O)O)C[C@@H]1N1CCC(c2ccc(Br)cc2)CC1` (stereo partly drawn) [3 g, 5‐Acetamido‐4‐[4‐(4‐bromophenyl)piperidin‐1‐yl]‐3,4,5‐ trideoxy‐D‐glycero‐β‐D‐galacto‐nonulosonic acid], for which, in test [2], the “ΔT m (relative to Neu5Ac)” value is listed as “piperidine or piperazine‐linked halogenated aromatic residues showed the largest thermal stabilizations”.
